# Results reported in ChEMBL document CHEMBL6120947, “Synthesis and Antiosteoporotic Characterization of Diselenyl Maleimides: Discovery of a Potent Agent for the Treatment of Osteoporosis by Targeting RANKL” (J Med Chem, 2024).
# Assay: Toxicity in OVX-induced osteoporosis C57BL/6 mouse model assessed as pathological change in lung at 10 mg/kg, po administered every other day for 8 weeks by H and E staining based analysis
# Format: organism-based
# Conditions: in vivo, 1344 h
structure (smiles),measurement,value
O=C1C([Se]c2ccccc2)=C([Se]c2ccccc2)C(=O)N1Cc1ccccc1,Activity,Non-toxic
